Assay results: patent US20230365530A1, “QUINAZOLINE-2,4-DIAMINE DERIVATIVE AND PHARMACEUTICAL COMPOSITION FOR PREVENTING OR TREATING CANCER COMPRISING SAME AS ACTIVE INGREDIENT” (THE ASEAN FOUNDATION, priority 2020, published 2023)

Legend:
[1] = tested on: pancreatic cancer cell line Miapaca 2; assay: Cancer cell growth inhibition test, CellTiter-glo; type: cell-based; details: Homo sapiens, MIA PaCa-2, Miapaca 2 cells, 72 hours
Description: In order to confirm the effect of reducing cell viability by inhibiting EHMT2 by the compounds of Examples in cells, the effect of inhibiting cancer cell growth was analyzed using CellTiter-glo™ analysis (Promega, cat. G7573) method. Specifically, the amount of ATP in living cells was measured and IC50 values were calculated using software to compare the inhibitory effect of the compounds of Examples on cell viability. First, the pancreatic cancer cell line Miapaca 2 was placed in a 96-well cell culture plate at the density of 1×10^3 cells/well and cultured overnight, and then each well of the plate was treated with 1 nM to 100 μM of the compounds of Examples 1 to 89 at each concentration for 72 hours (The final concentration of DMSO in each well was 0.5% or less). CellTiter-glo 2.0 reagent was mixed with a medium at 20% of the amount of the medium, reacted at room temperature for 10 minutes, and then 80 μL of the mixture was transferred to each well of a 96-well plate, followed by measuring the degree of luminescence.

[2] = tested on: Miapaca2 xenograft model; assay: Tumor growth inhibition in Miapaca2 xenograft model; type: in vivo, Athymic nude mouse; details: 20 mg/kg intraperitoneally once a day for 4 weeks
Description: In order to confirm the tumor growth inhibitory effect of the compounds of Examples according to the present invention in a xenograft model in which the human pancreatic cancer cell line was transplanted, a cancer growth inhibition experiment was conducted in the Miapaca2 xenograft model.
Specific experimental methods are as follows. The frozen Miapaca-2 cell line was thawed and cultured in DMEM (Dulbecco's modified Eagle's medium) supplemented with 10% FBS and 1% penicillin-streptomycin in a 37° C., 5% CO2 incubator. The thawed cells were cultured for more than one week, and subcultured at intervals of 2˜3 days, confirming that there was no infection with bacteria, yeast (cell image) and mycoplasma. The cells were stained with trypan blue, and those having a survival rate of 90% or more were used for transplantation. The cells were suspended using trypsin-EDTA and then suspended in a cold solution (PBS:matrigel=6:4). Miapaca-2 cells (4×10^6 cells/[…]) were subcutaneously transplanted under the right scapula of the Athymic nude mouse, which had been acclimated for about 1 week. From the 3rd day after the transplantation, tumor formation and growth were observed, and the volume of the tumor was calculated according to the following equation using the measured tumor length.
[Tumor volume=(a^2b)/2, a: short diameter, b: long diameter]
When the average tumor volume of all mice on the day after tumor transplantation was 80±20 mm^3, the mice were grouped by paired-matching. Drugs were dissolved in 40% polyethylene glycol 400+16% 2-hydroxypropyl-b-cyclodextrin. The drugs were intraperitoneally administered at 20 mg/kg once a day for 4 weeks. A tumor growth curve was prepared using the tumor volume from the start date of drug administration to the end of the test. The results are shown in FIG. 1, and the tumor growth inhibition rates of the compounds of Examples to the control group are shown in Table 4.

[3] = molecular target: EHMT2 (Euchromatic histone-lysine N-methyltransferase 2) (Homo sapiens (Human), UniProt Q96KQ7); assay: EHMT2 enzyme inhibition, LANCE TR-FRET; type: biochemical; details: histone H3 peptide, 1 hour at room temperature
How it was run: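 EHMT2/G9a enzyme preincubated 10 min with SAM and compounds (1 nM–100 μM, 4× stocks), then reacted 1 hour at room temperature with biotinylated histone H3 peptide (2 μM, 4× stock). H3K9 methylation detected by Eu-antibody/ULight-streptavidin TR-FRET at 665 nm; background-subtracted activity expressed relative to 4% DMSO vehicle; IC50 calculated.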

[4] = tested on: MC38 syngeneic model; assay: Combination therapy with anti CTLA-4 in MC38 syngeneic model; type: in vivo, C57BL/6 mouse
Description: In order to confirm the synergistic efficacy of the combination therapy of the compounds of Examples of the present invention and a cancer immunotherapy agent (anti CTLA-4) in a syngeneic animal model transplanted with a mouse colorectal cancer cell line, a cancer cell growth inhibition experiment was conducted in the MC38 syngeneic model. Specific experimental methods are as follows. The frozen MC38 cell line was thawed and cultured in DMEM (Dulbecco's modified Eagle's medium) supplemented with 10% FBS and 1% penicillin-streptomycin in a 37° C., 5% CO2 incubator. The thawed cells were cultured for more than one week, and subcultured at intervals of 2-3 days, confirming that there was no infection with bacteria, yeast (cell image) and mycoplasma. The cells were stained with trypan blue, and those having a survival rate of 90% or more were used for transplantation. The cells were suspended using trypsin-EDTA and then suspended in cold PBS. MC38 cells (1×10^5 cells/150 μl) were subcutaneously transplanted under the right scapula of the C57BL/6 mouse, which had been acclimated for about 1 week. From the 3rd day after the transplantation, tumor formation and growth were observed, and the volume of the tumor was calculated according to the following equation using the measured tumor length. [Tumor volume=(a^2b)/2, a: short diameter, b: long diameter] When the average tumor volume of all mice on the day after tumor transplantation was 80±20 mm^3, the mice were grouped by paired-matching. Drugs were dissolved in 40% polyethylene glycol 400+16% 2-hydroxypropyl-b-cyclodextrin. The compounds of Examples of the present invention were intraperitoneally administered at 30 mg/kg once a day for 4 weeks, and the CTLA-4 antibody (BioX Cell, cat. BE1031) was intraperitoneally administered at 10 mg/kg three times a week. A tumor growth curve was prepared using the tumor volume from the start date of drug administration to the end of the test. The results are shown in FIG. 2, and the tumor growth inhibition rates of the compounds of Examples to the control group are shown in Table 5.

Chain of EHMT2 (Euchromatic histone-lysine N-methyltransferase 2) (Q96KQ7 whole entry): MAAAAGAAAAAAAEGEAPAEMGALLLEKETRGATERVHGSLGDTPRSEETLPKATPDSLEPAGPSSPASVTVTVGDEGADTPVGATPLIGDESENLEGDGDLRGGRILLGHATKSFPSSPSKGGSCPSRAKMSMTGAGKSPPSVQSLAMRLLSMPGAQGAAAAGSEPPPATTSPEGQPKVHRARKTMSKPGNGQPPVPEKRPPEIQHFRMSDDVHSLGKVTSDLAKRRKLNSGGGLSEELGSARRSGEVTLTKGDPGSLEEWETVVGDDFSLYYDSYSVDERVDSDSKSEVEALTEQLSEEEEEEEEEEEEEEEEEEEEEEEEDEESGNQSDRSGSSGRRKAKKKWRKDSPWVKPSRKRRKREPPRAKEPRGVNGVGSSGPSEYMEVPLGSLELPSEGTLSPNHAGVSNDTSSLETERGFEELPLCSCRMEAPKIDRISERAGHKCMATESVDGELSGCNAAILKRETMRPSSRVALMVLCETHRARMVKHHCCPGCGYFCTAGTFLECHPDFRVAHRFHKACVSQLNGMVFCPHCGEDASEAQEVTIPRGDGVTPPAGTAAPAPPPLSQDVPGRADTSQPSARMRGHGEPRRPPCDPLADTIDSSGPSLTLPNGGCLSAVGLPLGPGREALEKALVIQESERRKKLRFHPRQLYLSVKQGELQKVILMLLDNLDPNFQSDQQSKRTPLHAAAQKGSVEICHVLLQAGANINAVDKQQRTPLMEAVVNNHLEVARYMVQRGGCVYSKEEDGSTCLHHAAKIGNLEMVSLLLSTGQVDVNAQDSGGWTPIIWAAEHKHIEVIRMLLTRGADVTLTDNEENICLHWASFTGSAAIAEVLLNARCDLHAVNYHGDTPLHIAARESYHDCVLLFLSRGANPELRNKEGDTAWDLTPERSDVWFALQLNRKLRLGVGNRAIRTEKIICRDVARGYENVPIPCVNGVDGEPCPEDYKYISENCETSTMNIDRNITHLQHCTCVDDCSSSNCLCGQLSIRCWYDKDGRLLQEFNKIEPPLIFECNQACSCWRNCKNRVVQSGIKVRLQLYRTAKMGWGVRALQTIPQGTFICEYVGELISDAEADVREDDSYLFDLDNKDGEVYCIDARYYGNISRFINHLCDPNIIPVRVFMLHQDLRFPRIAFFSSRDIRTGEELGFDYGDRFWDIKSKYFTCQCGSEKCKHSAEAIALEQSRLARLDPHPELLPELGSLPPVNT

With COc1cc2c(NC3CCN(C4CC4)CC3)nc(N(C)C)nc2cc1C#CCCN1CCCC1 [Example 55, N4-(1-cyclopropylpiperidine-4-yl)-6-methoxy-N2,N2-dimethyl-7-(4-(pyrrolidine-1-yl)-1-butyne-1-yl)quinazoline-2,4-diamine] the IC50 [1] was 307 nM, the “Tumor growth inhibition rate (TGI)” value [2] was 31.80 and the IC50 [3] was under 100 nM.

COc1cc2c(NC3CCN(C(C)C)CC3)nc(N(C)C)nc2cc1C#CCCN1CCCC1 [Example 49, N4-(1-isopropylpiperidine-4-yl)-6-methoxy-N2,N2-dimethyl-7-(4-(pyrrolidine-1-yl)-1-butyne-1-yl)quinazoline-2,4-diamine] gave an IC50 [1] of 333 nM and an IC50 [3] of under 100 nM.

In the case of COc1cc2c(NC3CCN(C4CC4)CC3)nc(N3CCCN(C)CC3)nc2cc1C#CCCN1CCCC1 [Example 56, N-(1-cyclopropylpiperidine-4-yl)-6-methoxy-2-(4-methyl-1,4-diazepane-1-yl)-7-(4-(pyrrolidine-1-yl)-1-butyne-1-yl)quinazoline-4-amine], the IC50 [1] is reported as 192 nM and the IC50 [3] is reported as under 100 nM.

COc1cc2c(NC3CCN(C(C)C)CC3)nc(N3CC[C@@H](F)C3)nc2cc1C#CCCN1CCCC1 [Example 60, (R)-2-(3-fluoropyrrolidine-1-yl)-N-(1-isopropylpiperidine-4-yl)-6-methoxy-7-(4-(pyrrolidine-1-yl)-1-butyne-1-yl)quinazoline-4-amine] was tested, and the IC50 [1] was 669 nM and the IC50 [3] was under 100 nM.

Work on COc1cc2c(NC3CCN(C(C)C)CC3)nc(N3CCCC3)nc2cc1C#CCCN1CCCC1 [Example 42, N-(1-isopropylpiperidine-4-yl)-6-methoxy-2-(pyrrolidine-1-yl)-7-(4-(pyrrolidine-1-yl)-1-butyne-1-yl)quinazoline-4-amine] yielded an IC50 [1] of 304 nM and an IC50 [3] of under 100 nM.

With COc1cc2c(NC3CCN(C(C)C)CC3)nc(N(C)C)nc2cc1C#CCCN(C)C [Example 14] the IC50 [1] was 338 nM and the IC50 [3] was under 100 nM.

COc1cc2c(NCCN(C)C)nc(N3CCCC3)nc2cc1C#CCCN1CCCC1 [Example 52, N1-(6-methoxy-2-(pyrrolidine-1-yl)-7-(4-(pyrrolidine-1-yl)-1-butyne-1-yl)quinazoline-4-yl)-N2,N2-dimethylethane-1,2-diamine] was tested, and the IC50 [1] was 464 nM, the “Tumor growth inhibition rate (TGI)” value [2] was 26.39 and the IC50 [3] was under 100 nM.

In the case of COc1cc2c(NC3CCN(C(C)C)CC3)nc(N3CCCCC3)nc2cc1C#CCCN(C)C [Example 3, 7-(4-(dimethylamino)-1-butyne-1-yl)-N-(1-isopropylpiperidine-4-yl)-6-methoxy-2-(piperidine-1-yl)quinazoline-4-amine], the IC50 [1] is reported as 655 nM, the “Tumor growth inhibition rate (TGI)” value [2] is reported as 42.47 and the IC50 [3] is reported as under 100 nM. The “Effect of combination with cancer immunotherapy agent (in words)” value ([4]; combined with anti CTLA-4) was “enhancing the anticancer activity of a cancer immunotherapy agent”, the “Tumor growth inhibition rate (TGI)” value ([4]; compound alone, 30 mg/kg intraperitoneally once a day for 4 weeks) was 3.00% and the “Anticancer activity alone (in words)” value ([4]; treated alone) was “inhibits tumor growth even when treated alone”.
